PubChem BioAssay (NCI)
Where “and” joins values, the source holds several entries; their conditions need not be identical. Equal entries are not always repeated.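 How tested: cells in 96-well plates exposed to compound for 48 hours at five concentrations. The concentration for 50% growth inhibition is given as GI50. The concentration for full growth arrest is given as TGI.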

Assays:
Assay in all cases: growth of human tumour cells (NCI), 48 h
UO-31 renal = tested on: UO-31 renal
UACC-62 melanoma = tested on: UACC-62 melanoma
SK-MEL-5 melanoma = tested on: SK-MEL-5 melanoma
T-47D breast = tested on: T-47D breast
SR leukemia = tested on: SR leukemia
A549 NSCLC = tested on: A549 NSCLC
PC-3 prostate = tested on: PC-3 prostate
HT29 colon = tested on: HT29 colon
HCT-116 colon = tested on: HCT-116 colon
HL-60(TB) leukemia = tested on: HL-60(TB) leukemia

SMILES	GI50 (UO-31 renal)	TGI (UO-31 renal)	GI50 (UACC-62 melanoma) [µM]	TGI (UACC-62 melanoma)	GI50 (SK-MEL-5 melanoma)	TGI (SK-MEL-5 melanoma)	GI50 (T-47D breast)	TGI (T-47D breast)	GI50 (SR leukemia)	TGI (SR leukemia)	GI50 (A549 NSCLC)	TGI (A549 NSCLC)	GI50 (PC-3 prostate)	TGI (PC-3 prostate)	GI50 (HT29 colon)	TGI (HT29 colon)	GI50 (HCT-116 colon)	TGI (HCT-116 colon)	TGI (HL-60(TB) leukemia)	GI50 (HL-60(TB) leukemia)
COc1ccc(CCN2CCCN3C2=Nc2ccccc2S3(=O)=O)cc1	0.913 µM	> 100 µM	0.744	> 100 µM	0.357 µM	16.4 µM	0.56 µM	> 100 µM	0.193 µM	> 100 µM	0.8 µM	> 100 µM	0.529 µM	> 100 µM	0.323 µM	17.5 µM	0.444 µM	16.4 µM	–	–
CCC(=O)C1(c2ccccc2)CCN(C)CC1	–	> 100 µM	–	–	–	> 100 µM	–	> 100 µM	–	> 100 µM	–	> 100 µM	–	> 100 µM	–	> 100 µM	–	> 100 µM	> 100 µM	–
CCc1c2c(nc3cc4c(c(N)c13)OCO4)-c1cc3c(c(=O)n1C2)COC(=O)[C@]3(O)CC	0.00128 µM	0.153 µM	< 0.001	0.405 µM and 0.236 µM	< 0.001 µM	0.0222 µM and 0.101 µM	< 0.001 µM	–	–	> 100 µM	< 0.001 µM	1.01 µM and 1.47 µM	0.228 µM and 0.0288 µM	> 100 µM	0.0145 µM	> 100 µM	0.174 µM	24.6 µM	–	< 0.001 µM
COc1cccc(Cn2c(-c3nonc3N)nc3ccccc32)c1	0.632 µM	> 100 µM	0.493	> 100 µM	0.375 µM	> 70.5 µM	0.475 µM	> 100 µM	0.31 µM	> 100 µM	0.625 µM	> 100 µM	0.435 µM	> 84.2 µM	0.345 µM	–	0.461 µM	> 100 µM	13.8 µM	0.298 µM
C=CC(=O)N1C/C(=C\c2ccccc2)C(=O)/C(=C/c2ccccc2)C1	–	3.43 µM	–	3.68 µM	–	3.12 µM	–	18.4 µM	0.566 µM	0.935 µM and 5.24 µM	–	9 µM	–	3.91 µM	0.528 µM	2.87 µM	0.355 µM	0.397 µM	7.4 µM	0.805 µM
O=C1/C=C/[C@@H](O)[C@@H]2C[C@@H](O)C[C@H]2/C=C/CCC[C@H](CCc2ccc(C(F)(F)F)cc2)O1	0.259 µM	–	0.169	17.3 µM	0.0257 µM	0.0647 µM	0.318 µM	59.8 µM	0.311 µM	3.16 µM	0.305 µM	> 100 µM	0.401 µM	> 83.3 µM	0.127 µM	2.1 µM	0.251 µM	0.607 µM	2.74 µM	0.346 µM
CN1CCC(CNc2ccc3ncc(-c4cccc(OC(F)(F)F)c4)n3n2)CC1	1.16 µM and 1.24 µM	2.59 µM and 3.04 µM	1.76	3.66 µM	1.47 µM and 1.51 µM	2.82 µM and 2.85 µM	1.44 µM and 1.28 µM	3.01 µM and 3.56 µM	1.9 µM and 1.7 µM	5.24 µM and 4.46 µM	1.85 µM and 2.3 µM	4.97 µM and > 10 µM	1.67 µM and 2.41 µM	7.13 µM and > 10 µM	1.75 µM and 1.85 µM	4.49 µM and 5.15 µM	1.83 µM and 1.7 µM	3.94 µM and 4.33 µM	3.79 µM and 2.89 µM	1.54 µM and 1 µM
COc1ccc(-c2nsc3c2NC(=O)CC3c2ccc(F)cc2)cc1 (stereo not given)	4.59 µM	> 100 µM	4.66	> 100 µM	3.22 µM	> 100 µM	4.64 µM	> 100 µM	1.1 µM	> 100 µM	4.58 µM	> 100 µM	3.33 µM	> 100 µM	2.84 µM	27.6 µM	3.95 µM	> 100 µM	> 21.1 µM	0.598 µM
CC(C)CC1C(=O)N2CCC[C@H]2C2(O)O[C@](NC(=O)C3C=C4c5cccc6[nH]c(Br)c(c56)C[C@H]4N(C)C3)(C(C)C)C(=O)N12 (stereo not given in full)	2.02 µM	> 100 µM	29.7	> 100 µM	4.57 µM	> 100 µM	2.9 µM	> 100 µM	33.7 µM	> 100 µM	4.72 µM	> 100 µM	3 µM	> 100 µM	–	> 100 µM	–	> 100 µM	29.3 µM	3.8 µM
Cc1cc(C(=O)Nc2nc3cccc(Cl)c3n2[C@@H]2CCCCN(C(=O)/C=C/CN(C)C)C2)ccn1	2.71 µM	20.3 µM	15.3	31.5 µM	8.97 µM	22.8 µM	1.5 µM	23.7 µM	11.3 µM	35.5 µM	6.37 µM	31.8 µM	9.22 µM	28.2 µM	9.91 µM	30.2 µM	6.5 µM	19.5 µM	38.3 µM	17 µM
CC1=C(C(=O)Nc2ccccc2C)C(c2ccc(C3C(C(=O)Nc4ccccc4C)=C(C)NC(C)=C3C(=O)Nc3ccccc3C)cc2)C(C(=O)Nc2ccccc2C)=C(C)N1	–	26.7 µM	–	4.65 µM	–	24.6 µM	–	20.5 µM	–	8.56 µM	–	27.8 µM	–	16.1 µM	–	4.62 µM	–	7.17 µM	6.15 µM	–
O=c1[nH]cc(/C=N\Nc2ccccc2)c(=O)[nH]1	–	> 100 µM	–	> 100 µM	–	> 100 µM	–	> 100 µM	–	> 100 µM	–	> 100 µM	–	> 100 µM	–	> 100 µM	–	> 100 µM	> 100 µM	–
COC(=O)NC1(NC(=O)OC)NC(=O)c2cc(OC)c(OC)cc2N1	–	> 100 µM	–	> 100 µM	–	> 100 µM	–	> 100 µM	–	> 100 µM	–	> 100 µM	–	> 100 µM	–	–	–	> 100 µM	–	–
CCN(CC)CCCC(C)Nc1cc(-c2ccc(C(F)(F)F)cc2)c(C#N)c2nc3ccccc3n12 (stereo not given)	1.41 µM	2.87 µM	1.72	3.38 µM	–	–	2.23 µM	5.45 µM	2.16 µM	5.91 µM	3.44 µM	10.9 µM	2.06 µM	4.26 µM	2.38 µM	5.58 µM	0.687 µM	2.06 µM	4.98 µM	2.1 µM
